How the values were obtained:
[1] = system: hiPSC-CMs (iCell Cardiomyocytes); experiment: DNA synthesis assay (48 h EdU incorporation)
Description: ICell Cardiomyocytes (Cellular Dynamics International) were seeded in 96-well or 384-well Corning CellBind plates at approximately 2.5×10^4 to 3.5×10^4 cells/cm^2. Cells were cultured for 2 days in iCell Cardiomyocytes Plating Medium (Cellular Dynamics International) supplemented with 1% Penicillin/Streptomycin (P/S; Gibco) followed by an additional 4 days in iCell Cardiomyocytes Maintenance Medium (Cellular Dynamics International) supplemented with 1% P/S. For all experiments, cells were first serum starved for 4 h and then treated in William's E medium without phenol red (Gibco) supplemented with Primary Hepatocyte Cell Maintenance Cocktail B (Gibco) containing P/S, ITS+, GlutaMAX, and HEPES. Cells were cultured for all experiments in a humidified environment at 37° C. with 5% CO2.
EdU incorporation and labeling with copper catalyzed click chemistry was used to measure DNA synthesis. Cells were treated in the presence of 1 μM EdU (Invitrogen) for 48 h, and subsequently fixed and permeabilized prior to incubation with the EdU click chemistry reaction mix—100 mM Tris HCL pH 7.0 (Gentrox), 4 mM CuSO4 (Sigma), 100 mM ascorbic acid (Sigma), and 5 μM Alexa Fluor 546 Azide (Click Chemistry Tools). After labelling EdU, cells were stained with anti-Cardiac Troponin T (Abcam) and DAPI (Sigma).
Custom image analysis and processing pipelines were developed and implemented in MATLAB to quantify the number of nuclei/cells, percent EdU positive objects, percent Ki67 positive objects, multinucleation, DNA content, cell cycle phases, and ploidy.
Classification—The binary segmented mask and background subtracted images were used to calculate the mean intensities of Hoechst 33342, DAPI, Cardiac-Troponin T, EdU, and Ki67 staining for each segmented object. […] Marker positivity thresholds were determined using Rosin's unimodal thresholding algorithm [63] on the mean intensity values for each segmented object.

[2] = system: hiPSC-CMs (iCell Cardiomyocytes); experiment: Live-cell proliferation assay (change in number of cells over 6 days)
Description: Using the same live-cell proliferation assay we developed in the previous study [13], we confirmed the 5-point concentration-response profiles (0.1-10.0 μM) in three independent manufacturing lots of iCell Cardiomyocytes (FIG. 7). Briefly, hiPSC-CMs were stained with a low, non-toxic concentration of Hoechst 33342 and the same imaging fields of view were collected at both initial (day 0) and final (day 6) timepoints. We quantified the change in the number of cells, binucleation events, and DNA content distribution using the image segmentation and analysis pipeline described in the previous study [13].
ICell Cardiomyocytes (Cellular Dynamics International) were seeded in 96-well or 384-well Corning CellBind plates at approximately 2.5×10^4 to 3.5×10^4 cells/cm^2. […] Cells were cultured for all experiments in a humidified environment at 37° C. with 5% CO2.
Pharmacology Metrics—Based on concentration-dependent responses of changes in cell number, we quantified area under the curve (AUC) as the sum of the relative changes in cell number across the five concentrations of compound. As a measure of potency, we performed cubic B-spline interpolation and then calculated the minimum concentration needed to achieve 50% of the maximum effect.

[3] = system: hiPSC-CMs (iCell Cardiomyocytes); experiment: Multinucleation analysis after 6 days of treatment; type: cell-based, human; conditions: 10 μM inhibitor alone or with C3, compared to negative control or compound treatment alone
Description: Multinucleation Analysis—Multinucleated cells were identified based on the distance between neighboring nuclei. This distance threshold was determined using Cardiac-Troponin T staining to visualize cell borders. A morphological closing operation with a circular structuring element was applied to the binary segmented mask to merge and classify nuclei in multinucleated cells.

[4] = system: hiPSC-CMs (iCell Cardiomyocytes); experiment: DNA content / ploidy and cell cycle phase analysis after 6 days of treatment
VEGFR2 (KDR) = conditions: 12 h treatment, compared to the DMSO negative control
Description: To further investigate the role of RTKs in compound-induced proliferation, we profiled the activity of 49 RTKs using a specialized array with the same protein lysates used for the RPPA.
Cells were seeded in 60 mm Corning CellBind dishes, cultured for 6 days, serum starved for 4 h, and treated with compounds for 12 h with 3 replicates. At the end of the experiment, cells were treated with 1 mM peroxyvanadate (1 mM NaVO3, 0.1 μg/mL Catalase, 0.003% H2O2) for 15 min prior to cell lysis. Cells were then rinsed with ice-cold 1×PBS and lysed on ice for 15 min with lysis buffer (50 mM Tris-HCl pH 7.5, 150 mM NaCl, 0.1 mM EDTA, 1 mM DTT, 1 mM NaVO3, 0.5% TritonX-100) containing protease inhibitor cocktail (Sigma). Cell lysates were mechanically homogenized using 28-gauge syringes, spun down, and adjusted to equivalent concentrations. The Proteome Profiler Human Phospho-RTK Array Kit (R&D Systems) was used to measure phosphorylation activity of 49 RTKs. Briefly, the arrays with printed anti-RTK antibodies were blocked for 1 hour and incubated with 38.8 μg of total protein lysate overnight at 4° C. The arrays were then washed and incubated with anti-phospho-tyrosine antibodies conjugated to HRP and detected via chemiluminescence. Array films were scanned and Image Studio software (LI-COR) was used to quantify intensities of each spot. […]

For `COc1cccc(-c2cc(=O)c3ccccc3o2)c1N` [PD98059], the “effect of inhibitor alone on DNA synthesis (EdU incorporation)” value ([1]; 10 μM inhibitor alone, unstimulated hiPSC-CMs, 48 h) was “modest decreases”, the “effect of inhibitor on C3 induced DNA synthesis” value ([1]; 10 μM inhibitor in combination with 3.2 μM C3, 48 h) was “attenuated” and the “effect of inhibitor on C3 induced proliferation (increase in cell numbers)” value ([2]; 10 μM inhibitor in combination with 3.2 μM C3, day 6) was “only INK and PI3K inhibition attenuated”.

In the case of `CNC(=O)c1ccccc1Sc1ccc2c(/C=C/c3ccccn3)n[nH]c2c1` [axitinib], the increase in multinucleation [3] is reported as “over 2 fold”.

`Cc1cccc(-c2n[nH]cc2-c2ccc3ncccc3n2)n1` [C3, RepSox] was tested, and the endoreplication cycles [4] was “without additional endoreplication cycles”, the “VEGFR2 (KDR) activation / expression” value (VEGFR2 (KDR)) was “induced” and the maximum-effect concentration ([2]; 5-point concentration response 0.1-10 μM, 6 days) was 3.2 µM. For the same molecule, the “proliferation (change in the number of cells over 6 days)” value ([2]; compound alone at Emax concentration, 6 days) was “induces proliferation”.

`C[C@]1(O)C[C@@H](c2nc(-c3ccc4ccc(-c5ccccc5)nc4c3)c3c(N)nccn32)C1` [linsitinib] was tested, and the “effect of inhibitor on C3 induced DNA synthesis” value ([1]; 0.1 μM inhibitor in combination with 3.2 μM C3, 48 hrs) was “modest effect in reducing” and the “effect of inhibitor on late-stage proliferation metrics” value ([2]; 0.1 μM inhibitor in combination with 3.2 μM C3, day 6) was “no effect”.

Source: patent publication US20250375434A1, “SMALL MOLECULES AND METHODS FOR INDUCING CARDIOMYOCYTE PROLIFERATION” (UNIVERSITY OF VIRGINIA PATENT FOUNDATION, priority 2024, published 2025)
